The nature of series [1]: in vitro. Particulars: SD, HW or BN, rat, plasma.
The nature of series [2]: in vitro. As to conditions: hepatocytes.
Series [3] is described as follows: in vitro. As to conditions: human.
The nature of series [4]: physchem. Particulars: octan-1-ol/water.
Series [5] is described as follows: in vitro. Particulars: human, plasma, PPB.
A short description of series [6]: physchem. As to conditions: pH 7.4 buffer.

These results are taken from ChEMBL document CHEMBL3301361, “Experimental in vitro DMPK and physicochemical data on a set of publicly disclosed compounds”.

Usually fraction unbound stands for free concentration divided by total concentration. By hepatocyte CLint is commonly meant a measure of how fast metabolising enzymes remove a compound, apart from limits set by blood flow. Low readings indicate greater metabolic stability, high ones faster metabolism. Usually microsomal CLint stands for the rate of metabolic loss divided by the concentration. A higher microsomal CLint goes with faster metabolism. Usually logD stands for the decadic logarithm of the distribution of all forms, ionised or not, between an organic phase and buffer at a given pH. In general, thermodynamic solubility refers to the concentration in solution at equilibrium with solid.

Each structure is given as a SMILES string. ≈ marks a conversion by molar mass, not a printed value.

On to `N#C[C@]1(NC(=O)[C@@H](N)Cc2cccs2)C[C@H]1c1ccccc1`, for which, in series [1], the fraction unbound at 5 h was 0.294. In series [2], this compound gave a hepatocyte CLint of 136 µL/min/1e6 cells. In addition, the microsomal CLint in series [3] (liver microsomes) amounted to 41 µL/min/mg. This compound gave a logD in series [4] (pH 7.4, LogD7.4) of 1.5.
With `CN(CCCOCCOCCc1ccccc1)CCc1ccc(O)c2nc(O)sc12`, the fraction unbound at 5 h was 0.24 in series [1] and 0.0988 in series [5]. The hepatocyte CLint in series [2] was greater than 150 µL/min/1e6 cells. The compound further displayed a microsomal CLint in series [3] (liver microsomes) of 35 µL/min/mg.
The compound `O=C(c1ccccc1)N1CCC2(CCN(Cc3cccc(Cl)c3)CC2)CC1` showed a free fraction (fraction unbound) at 5 h in series [1] of 0.166. The same compound returned a hepatocyte CLint in series [2] of less than 3 µL/min/1e6 cells. For the same compound, the intrinsic metabolic clearance (microsomal CLint) in series [3] (microsomes) amounted to 5 µL/min/mg.
Consider `Cc1cccc(CN2CCC3(CC2)CCN(C(=O)c2ccccc2)CC3)c1`, for which the unbound share (fraction unbound) at 5 h in series [1] is 0.46. This compound also returned a hepatocyte CLint in series [2] of 10.2 µL/min/1e6 cells. This compound also registered an intrinsic clearance (microsomal CLint) in series [3] (liver microsomes) of 13.5 µL/min/mg.
For `COc1ccccc1CN1C(=O)c2ccccc2C1C(=O)NC1CCC(C)CC1` (stereo not drawn), the fraction unbound at 5 h in series [1] is 0.0968. This compound also registered a hepatocyte CLint in series [2] greater than 150 µL/min/1e6 cells. Further, the microsomal CLint in series [3] (liver microsomes) was greater than 150 µL/min/mg. Besides, the logD in series [4] (pH 7.4) amounted to 3.74.
In series [1], `O=C(CN1CCOCC1)Nc1ccc(-c2cccc3c(=O)cc(N4CCOCC4)oc23)cc1-c1ccccc1` gave a fraction unbound at 5 h of 0.0633. The intrinsic clearance (hepatocyte CLint) in series [2] was found to be 123 µL/min/1e6 cells.
In turn, `Cc1ccc(CO)cc1N(c1ccnc(Nc2cc(N3CCOCC3)cc(S(C)(=O)=O)c2)n1)C(C)C` had a solubility (thermodynamic) in series [6] of 1.3 µM (≈ 0.665 µg/mL). Further, the fraction unbound at 5 h in series [5] is 0.0409. The compound further registered a hepatocyte CLint in series [2] of 53.7 µL/min/1e6 cells. Besides, the microsomal CLint in series [3] (liver microsomes) is greater than 150 µL/min/mg.
In series [1], `COc1ccnc(CCc2nc3ncccc3[nH]2)c1` showed a fraction unbound at 5 h of 0.309. The same compound yielded a hepatocyte CLint in series [2] of 18.9 µL/min/1e6 cells. In addition, the microsomal CLint in series [3] (liver microsomes) was less than 3 µL/min/mg. In series [4] (pH 7.4, LogD7.4), this compound returned a pH-dependent lipophilicity (logD) of 1.69.
As for `Cc1ccccc1/N=N/c1ccc(NC(=O)c2ccnn2C)c(C)c1`, the thermodynamic solubility in series [6] turned out to be 3.2 µM (≈ 1.07 µg/mL). Also, the unbound share (fraction unbound) at 5 h in series [1] is 0.0017. The same compound showed a hepatocyte CLint in series [2] of 51 µL/min/1e6 cells. This compound showed a microsomal CLint in series [3] (microsomes) of 4 µL/min/mg.
As to `Cc1ccc(C(NC(=O)c2ccccc2O)C(=O)Nc2c(C)cccc2C)s1` (stereo not drawn), the fraction unbound at 5 h in series [1] was 0.0075. This compound returned an intrinsic clearance (hepatocyte CLint) in series [2] of 70 µL/min/1e6 cells. Besides, the logD in series [4] (pH 7.4, LogD7.4) worked out at 4.05.
The compound `CSCCC(NC(=O)c1ccccc1)c1nc2ccccc2n1Cc1ccc(C#N)cc1` (stereo not drawn) gave a free fraction (fraction unbound) at 5 h in series [1] of 0.0245. Also, in series [2], the hepatocyte CLint is greater than 150 µL/min/1e6 cells. In series [3] (liver microsomes), this compound had a microsomal CLint greater than 150 µL/min/mg. The compound further came in with a logD in series [4] (pH 7.4, LogD7.4) of 4.24.
With `Cc1ccc(C(=O)NC2CC2)cc1-c1ccc(C(=O)NCC2CC2)nc1`, the free fraction (fraction unbound) at 5 h in series [1] is 0.089. Besides, the intrinsic metabolic clearance (hepatocyte CLint) in series [2] was 21 µL/min/1e6 cells. This compound also had an intrinsic clearance (microsomal CLint) in series [3] (microsomes) of less than 3 µL/min/mg. In addition, the logD in series [4] (pH 7.4, LogD7.4) is 3.36.
In turn, `Cc1cc(OCCCS(C)(=O)=O)cc(C)c1-c1cccc(COc2ccc3c(c2)OC[C@H]3CC(=O)O)c1` came in with a thermodynamic solubility in series [6] of 51.3 µM (≈ 26.9 µg/mL). Moreover, the free fraction (fraction unbound) at 5 h in series [5] was 0.0036. Further, the intrinsic clearance (hepatocyte CLint) in series [2] was 10 µL/min/1e6 cells. Also, the microsomal CLint in series [3] (microsomes) is 5.5 µL/min/mg. Moreover, the pH-dependent lipophilicity (logD) in series [4] (pH 7.4, LogD7.4) turned out to be 2.3.
For the compound `COc1cccc2sc(NC(=O)c3ccccc3)nc12`, the unbound share (fraction unbound) at 5 h in series [1] was 0.0101. In series [2], this compound gave a hepatocyte CLint of 16 µL/min/1e6 cells. The same compound returned an intrinsic clearance (microsomal CLint) in series [3] (liver microsomes) of 74 µL/min/mg. In series [4] (pH 7.4), this compound gave a logD of 3.96.
`CCC(CC)NC(=O)c1cnn(-c2ccccc2)c1NS(=O)(=O)c1ccc(C)cc1`: in series [1], the free fraction (fraction unbound) at 5 h is 0.0234. In series [2], the intrinsic metabolic clearance (hepatocyte CLint) stood at 47.9 µL/min/1e6 cells. In series [3] (liver microsomes), this compound had a microsomal CLint of 54.5 µL/min/mg. The same compound yielded a logD in series [4] (pH 7.4, LogD7.4) of 0.79.
As for `Cc1ccc(S(=O)(=O)Nc2c(C(=O)NCc3ccccc3)cnn2-c2ccccc2)cc1`, the fraction unbound at 5 h in series [1] was 0.0066. This compound returned an intrinsic metabolic clearance (hepatocyte CLint) in series [2] of 40 µL/min/1e6 cells. Besides, the microsomal CLint in series [3] (liver microsomes) was greater than 150 µL/min/mg. Besides, the pH-dependent lipophilicity (logD) in series [4] (pH 7.4, LogD7.4) was 1.9.
As to `CCC(CC)NC(=O)c1cnn(-c2ccccn2)c1NS(=O)(=O)c1ccc(C)cc1`, the fraction unbound at 5 h in series [1] is 0.0499. The compound further gave a hepatocyte CLint in series [2] of 9.95 µL/min/1e6 cells. For the same compound, the microsomal CLint in series [3] (liver microsomes) is less than 3 µL/min/mg. The compound also showed a logD in series [4] (pH 7.4, LogD7.4) of 0.27.
Compound `Cc1ccc(S(=O)(=O)Nc2c(C(=O)NC(C)C)c(C)nn2-c2ccccc2)cc1` had a fraction unbound at 5 h in series [1] of 0.051. Also, the intrinsic metabolic clearance (hepatocyte CLint) in series [2] was found to be 51 µL/min/1e6 cells. Besides, the intrinsic clearance (microsomal CLint) in series [3] (liver microsomes) was 12 µL/min/mg.
In turn, `Cc1nn(-c2ccccc2)c(NS(=O)(=O)c2cccc(CN3CCOCC3)c2)c1C(=O)N[C@@H](C)C(C)(C)C` had an unbound share (fraction unbound) at 5 h in series [1] of 0.16. This compound also displayed a hepatocyte CLint in series [2] of 10 µL/min/1e6 cells. In series [3] (liver microsomes), this compound displayed a microsomal CLint of 9 µL/min/mg.
Compound `CC(C(=O)OC1CC[N+](C)(C)CC1)(c1ccccc1)N1CCC(F)(F)CC1` (stereo not drawn) gave a fraction unbound at 5 h in series [1] of 0.624. The compound further returned an intrinsic clearance (hepatocyte CLint) in series [2] of 38 µL/min/1e6 cells. The intrinsic metabolic clearance (microsomal CLint) in series [3] (microsomes) came out at 41 µL/min/mg.
